Measured values from patent US7763585B2, “Methods for inhibiting tumor cell proliferation” (priority 2003, dated 2010).

Experiments:
Stat3 = assay: EMSA of nuclear extracts from treated cells with constitutively-activated Stat3; assay type: cell-based, mouse and human; conditions: Src-transformed fibroblasts and human tumor cells, FIG. 3
Procedure: FIG. 3 is a photograph showing the evaluation of effects of platinum complexes on Stat3 activation analyzed by EMSA. Nuclear extracts prepared from malignant cells that contain constitutively-activated Stat3 and treated with platinum complexes for the indicated times were analyzed by EMSA using hSIE oligonucleotide probe. Extracts were prepared from v-Src-transformed NIH3T3/v-Src; human breast carcinoma MDA-MB-231; MDA-MB-435; and […]. Position of Stat3:DNA complex in gel is shown.
Nuclear extracts were prepared from cell lines and used for EMSA as previously described (Turkson et al., 1998; Yu et al., 1995; Garcia et al., 1997). In some cases, cells were pre-treated with platinum complexes for the indicated times prior to harvesting. Where cells were stimulated with EGF (6 ng/ml), duration of treatment was 15 min. Nuclear extracts were pre-incubated with compounds for 30 min at room temperature prior to incubation with radiolabeled probe. The ^32P-radiolabeled oligonucleotide probes used are hSIE (high affinity sis-inducible element, m67 variant, 5′-[…]-3′) (SEQ ID NO:1) that binds both Stat1 and Stat3 (Garcia et al., 1997; Wagner et al., 1990), MGFe (mammary gland factor element from the bovine β-casein gene promoter, 5′-[…]-3′) (SEQ ID NO:2) that binds Stat1 and Stat5 (Gouilleux et al., 1995; Seidel et al., 1995), the NF-κB binding oligo (5′-[…]-3′) (SEQ ID NO:3), and the oligonucleotide sequence from the DHFR promoter that binds E2F1.
The effects of platinum complexes on persistent activation of Stat3 in Src-transformed fibroblasts and human tumor cells were investigated. […] These studies were then extended to evaluate the effects of the platinum complexes on Stat3 transcriptional activity.

[1] = system: Stat3-independent luciferase reporter (pRLSRE); assay: Stat3-independent renilla luciferase reporter in NIH3T3/v-Src/pRLSRE; assay type: cell-based, mouse; conditions: FIG. 4
Procedure: FIGS. 4A-B show inhibition of Stat3-mediated gene expression in intact cells by platinum complexes. v-Src-transformed mouse fibroblasts that stably express Stat3-dependent (NIH3T3/v-Src/pLucTKS3) and Stat3-independent (NIH3T3/v-Src/pRLSRE) luciferase reporters were treated with platinum complexes for the indicated times. Cytosolic extracts were then prepared from cells for Stat3-dependent firefly luciferase activity (FIG. 4A) and Stat3-independent renilla luciferase measurements (FIG. 4B). Values are the means and S.D. of five independent assays. […]
Cytosolic lysates preparation from fibroblasts for luciferase assays or from baculovirus-infected Sf-9 insect cells have been previously described (Turkson et al., 1998; Turkson et al., 2001; Turkson et al., 1999; Zhang et al., 2000). Luciferase assays were performed as outlined in the supplier's (Promega) manual and measured with a luminometer. […]

[2] = system: human breast and non-small cell lung cancer cell lines; assay: Cell proliferation ([3H]-thymidine incorporation) of human breast and non-small cell lung cancer cell lines; assay type: cell-based; conditions: FIG. 6
Source text: (§1) FIGS. 6A and 6B show the effects of platinum complexes on cell proliferation and viability. […] Values are the mean and S.D. of 3-4 independent determinations.
(§2) The effects of platinum complexes on cell proliferation measured by [^3H]-thymidine incorporation were investigated.

[3] = system: human tumor cells that do not contain constitutively-active Stat3; assay: Cell proliferation ([3H]-thymidine incorporation) of human tumor cells without constitutively-active Stat3; assay type: cell-based; conditions: FIG. 6; reduction in growth rate but not growth inhibitory
Source text: as §1, §2

[4] = system: normal NIH3T3 fibroblasts; assay: TUNEL staining for apoptosis, normal fibroblasts; assay type: cell-based, mouse; conditions: 48 h treatment, FIG. 7
Procedure: FIG. 7 is a photograph showing induction of apoptosis by platinum complexes. Normal NIH3T3 fibroblasts and their v-Src-transformed counterparts were treated with platinum complexes for 48 h and analyzed for evidence of DNA damage using TUNEL staining kit.
Proliferating cells were counted by phase-contrast microscopy for viable cells (using trypan blue exclusion. TUNEL staining was carried according to supplier's instructions to detect apoptotic cells. Cells (NIH3T3 or NIH3T3/v-Src) were first treated with or without compounds 24-48 h prior to staining.
Studies have established a critical role for constitutive Stat3 signaling in the survival of transformed and tumor cells (Catlett-Falcone et al., 1999a; Grandis et al., 2000a; Epling-Burnette et al., 2001; Bowman et al., 2000b; Grandis et al., 2000b; Horiguchi et al., 2002). Effects of the subject platinum compounds on viability and survival of malignant cells were evaluated. To determine whether inhibition of persistently-active Stat3 by the subject compounds results in apoptosis, Src-transformed and normal mouse fibroblasts were treated with the subject platinum compounds and subjected to TUNEL staining for evidence of apoptosis.

Structure (SMILES) | Inhibition of constitutive Stat3 activation in treated cells (EMSA of nuclear extracts) (Stat3) | Induction of Stat3-independent luciferase activity [1] | Growth of human breast and non-small cell lung cancer cell lines ([3H]-thymidine incorporation) [2] | Growth of human tumor cells that do not contain constitutively-active Stat3 [3] | Apoptosis (TUNEL staining) in normal fibroblasts [4]
[NH2][Pt]([NH2])([Cl])([Cl])([Cl])[N+](=O)[O-] [ISS CPA-7] | strong inhibition | little or no effect | strongly inhibited | marginal effect | marginal degree of apoptosis
O=[N+]([O-])[Pt]1([Cl])([Cl])([Cl])[NH]CC[NH]1 [ISS CPA-1] | strong inhibition | little or no effect | strongly inhibited | marginal effect | marginal degree of apoptosis
